Common to all, as to type: in vivo
Assay [1] relates to BCCI injury to the medial frontal cortex. The assay can be described thus: Bilateral controlled cortical impact (BCCI) injury in rats. How it is done:
Bilateral controlled cortical impact (BCCI) injury to the medial frontal cortex (MFC) of male Sprague Dawley rats was induced by a cortical contusion device. After CCI any cortical surface hemorrhaging was controlled, and the fascia and scalp were sutured. Sham-operated rats were anesthetized, mounted in the stereotaxic apparatus, and a craniotomy was performed.
Progesterone 16 mg/mL was dissolved in 22.5% 2-hydroxypropyl-β-cyclodextrin and the initial injection (16 mg/kg) was given i.p. 1 h after injury. The remaining injections (all 16 mg/kg) were given subcutaneously at 6 h post-injury and continued for 5 days after injury. Progesterone injections were made at a concentration of 1 mL/kg. Progesterone was used as a control.
Compound 1 0.2, 0.4, and 0.6 mg/mL was suspended in vehicle (0.6% w/v Pluronic® F-68 and 0.6% w/v PVP K-29/32 in water) and administered p.o at a concentration of 10 mL/kg, 16 h before injury and 2 h after injury, and administrations were continued for 4 days. Control rats received equivalent injections of the vehicle for Compound 1, at the same time points.
The Morris Water Maze (MWM) test is a spatial navigation task that measures learning and memory in rodents using visual cues. Subjects learn over the course of days to find a hidden platform. A MWM test was conducted two weeks after injury. Male Sprague Dawley rats were allowed to swim in the pool until they reached the platform located in the southwest quadrant of a tank, or until 90 seconds had elapsed. Behavior was tracked by a video camera hanging from above the pool and recorded and analyzed using video track software (ANY-maze).
The expression level of several cytokines in plasma harvested from rats in each treatment group was measured. The samples were received frozen and stored at −80° C. On the day of the experiment, the samples were thawed, diluted four-fold, and analyzed for cytokine expression on a Luminex platform. The samples were analyzed for the cytokines GRO/KC, IFNy, IL-1B, IL-6, IL-10, IL-12p70 and TNFa, using a multipliex kit manufactured by Millipore. […] The biggest change was in IL-10.
Quantitative measures of cell density were collected from anti-NeuN immunolabeled subsections from approximately 2-3 mm anterior to bregma. Regions of interest (ROIs) were drawn (blind to experimental condition) around Layers IV-VI in the cortical region adjacent to the injury site in CCI-treated animals or in the equivalent zone (dorsal cortex) in sham animals. An ROI of similar area was also evaluated in a ventral cortical region of the same section. Cell identification was performed using the cell counting module of Keyence BZ-II Analyzer software. Cell-to-gray matter (CG) area coefficients were determined for each ROI. […] The CCI-induced reduction in CG coefficient was mitigated by treatment with Compound 1 in the ventral cortex (−3% compared to sham; p=0.09). Although the effect of Compound 1 versus vehicle treatment in the ventral cortex is not statistically significant, it is anticipated that this effect would breach statistical significance in a larger study. No effect of Compound 1 was detected in the dorsal cortical region (−32% compared to sham) immediately adjacent to the injury site. The difference in the observed effect of Compound 1 on the ventral region versus the dorsal region may be a threshold effect related to the degree of injury, which was inversely related to the distance from the injury site. Thus, the damage to the dorsal cortical region could be too severe to be rescued by Compound 1 under these conditions.
Immunofluorescence was performed to evaluate the impact of TBI on several pathways of immune response, and to determine if Compound 1 might be mediating its neuroprotective effects via one or more of those pathways. […]

A further assay relates to diet-induced obesity. The experiment in a line: Diet-induced obesity (DIO) model in Sprague-Dawley rats. How it is done: Male Sprague-Dawley rats of age 2 months were placed on a high fat diet (Research Diets Inc., product code D12492, 60% kcal % fat) for 3 months. A group of age-matched rats were fed normal lab chow (LabDiet 5001, ˜13% kcal % fat), these animals served as controls for DIO group.
At age 4 months, and 2 months into placement of high fat diet, all rats were allocated into 3 groups of N=7 based on equivalent body weights and food intakes. Body weights and food and water intakes were measured at approximately the same time each day. On treatment days, dosing was at approximately 2 hours before lights off.
The DIO control group was treated with vehicle (oral, 10 mL/kg dose volume; 0.5% Pluronic F68 and 0.5% PVP K29/32 in water) on each weekday. The Compound 2 1.5 mg/kg group was orally treated on each weekday throughout the treatment phase (dose 10 mL/kg dose volume; 0.5% Pluronic F68 and 0.5% PVP K29/32 in water). The Compound 2 3 mg/kg group (10 mL/kg dose volume; 0.5% Pluronic F68 and 0.5% PVP K29/32 in water) was orally treated initially once daily on each weekday for week 1, then twice weekly (Monday, Wednesday) for week 2. During treatment weeks 3 and 4, Compound 2 3 mg/kg treatment continued twice weekly, except dosing was on Monday and Thursday.
Prior to the treatment phase, 3 days baseline data were collected. The treatment phase was for 4 weeks. A washout phase of 10 days was also included.
Compound 2 was supplied in powder form. […] Active percentage was adjusted using BEW of 1.437 and prepared by dissolving into 0.5% w/v Pluronic F-68 and 0.5% w/v PVP K-29-32 vehicle solution. The vehicle solution was prepared on a weekly basis while Compound 2 was prepared fresh every 2 days and stored at +4° C. Animals were dosed at a volume of 10 mL/kg. Individual doses were calculated based on the most recent body weights to provide the proper mg/kg/day dosage.

Assay [2] concerns collagen-induced arthritis. The assay can be described thus: Collagen-induced arthritis (CIA) in Lewis rats. The note with it: 4 mg/kg PO QoD from onset to day 28. The protocol:
Forty (40) female Lewis rats (BK), aged 6 to 8 weeks with a pre-treatment body weight range of 180 to 200 g were divided randomly into four (4) groups (Groups A-D) of ten (10) rats each. The rats in Groups B to D were immunized intradermally with bovine CII in IFA at three sites near the base of the tail and over the back with 500 μL of the emulsion on day 0 (200 μL, 200 μL, 100 μL for each site). On day 7, the rats in Groups B-D were given booster injections with the same amount of the emulsion intradermally near the former injection sites. […] Rats were weighed daily and a drug holiday was given to an animal when a weight loss of greater than 13%. CIA development was evaluated via macroscopic scoring and measurements of paw swelling. […] Foot volume was measured by plethysmometry on the same day of the arthritic measurement throughout the study period. The cubage of each hind paw and swelling rate were measured and using the following equation: Swelling Rate=(CN−C0)/C0×100%. […] The clinical scores were summed for each animal, and the total average of all animals in each group was expressed as the mean arthritic score. […] Prepared sections of hind paws were subjected to hematoxylin and eosin (H&E) staining.

Where [3] appears, read: 1.5-3 mg/kg oral, 28 day treatment period.

The structures appear in SMILES notation. “Also recorded” adds a separate entry of the source.

Consider `CC(C)(C)C(=O)NNC(=O)/C=C\n1cnc(-c2cc(C(F)(F)F)cc(C(F)(F)F)c2)n1` [Compound 1, (Z)-3-(3-(3,5-bis(trifluoromethyl)phenyl)-1H-1,2,4-triazol-1-yl)-N′-pivaloylacrylohydrazide], for which, in assay [1] (6 mg/kg), the “plasma IL-10” value was “reduced IL-10 compared to vehicle-treated control group” and the “qualitative visual inspection of whole brains (damage to dorsal-medial cortical tissue)” value is listed as “damage ranging from moderate to minimal”. For the same compound, the “latency to find the hidden platform (MWM test), significance” value in assay [1] (6 mg/kg p.o.) is “significant effects on days 17 and 18 after injury with 6 mg/kg”. In addition, the “latency to find the hidden platform (MWM test) compared to vehicle-treated BCCI-injured rats” value in assay [1] (2, 4 and 6 mg/kg p.o.) is listed as “dose dependent decrease in the latency to find the hidden platform”. Further, the “cell-to-gray matter (CG) coefficient, NeuN labeling, compared to sham” value in assay [1] (dorsal cortical region adjacent to the injury site) is given as −32%. Besides, in assay [1] (immunofluorescence), the “TNFα immunopositive cells in tissue surrounding the injury site” value is listed as “largely absent”; the “secondary injury responses (Rat IgG and TNFα labeling)” value is listed as “reduces secondary injury responses”. The “cell-to-gray matter (CG) coefficient, NeuN labeling, compared to sham” value in assay [1] (ventral cortex) is given as −3%.
As to `O=C(/C=C\n1cnc(-c2cc(C(F)(F)F)cc(C(F)(F)F)c2)n1)NNC(=O)CN1CCOCC1` [Compound 2, (Z)-3-(3-(3,5-bis(trifluoromethyl)phenyl)-1H-1,2,4-triazol-1-yl)-N′-(2-morpholinoacetyl)acrylohydrazide], in the assay with diet-induced obesity (setting [3]), the “body weight compared to DIO control group” value is “dose-related decrease”, the “daily food intake compared to DIO control group” value is given as “dose-related decrease; also recorded: decreases daily food intake in a dose dependent manner” and the water intake result is listed as “significantly increased water intake”. Also, the “body weight gain (percentage of body weight change from study day 3) compared to DIO controls” value in the assay with diet-induced obesity (1.5 and 3 mg/kg, treatment days 7 and 14) was “significant reduction in weight gain; also recorded: affects body weight gain at both 1.5 and 3 mg/kg doses”. Also, the “body weight compared to DIO controls” value in the assay with diet-induced obesity (washout phase) was “remained lower than DIO controls”. For the same compound, in assay [2], the “Clinical Scores, Joint Swelling and histological examination” value is “therapeutic efficacy”; the “histopathology of hind paws (H&E)” value was “relatively intact cartilage was found on the joint surface and pannus formation was minimal”.
